{"source": "patent US10308937B2", "about": "“Combination long acting compositions and methods for Hepatitis C” (GlaxoSmithKline Intellectual Property (No. 2) Limited, priority 2014, dated 2019)", "origin": "cited, not measured here", "settings": "patients treated at currently recommended doses", "data": [{"smiles": "NC(=O)c1ncn([C@@H]2O[C@H](CO)[C@@H](O)[C@H]2O)n1", "note": "[Ribavirin]", "values": [{"measurement": "patients with significant hemolysis", "value": "10-20 % of patients"}]}]}
